Test results published in US20240067662A1, “KRAS INHIBITORS” (Bristol-Myers Squibb Company, priority 2022, published 2024).

Molecular target: GMPPNP-loaded KRAS G12C (Homo sapiens, UniProt P01116, G12C)
Test: KRAS G12C RAF Disruption Assay (HTRF)
Type: biochemical
Details: recombinant GMPPNP-loaded KRAS G12C (5 nM), 20 min with compound; GST-RAF1 RBD (9 nM); HTRF signal; read-out: KRASG12C RAF Disruption Assay (IC50)
How it was run: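 The read-out is an HTRF 520/495 emission ratio, with IC50 taken from dose-response curves. Compound was first incubated for 20 min at room temperature with active-state KRAS G12C (GMPPNP, 5 nM) in Tris pH 7.5/NaCl/MgCl2/DTT/BSA. RAF1 RBD-GST (9 nM, 20 min) and SA-Tb (0.25 nM, 3 h) were added in turn.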

Chain of GMPPNP-loaded KRAS G12C (P01116 1-188 isoform P01116-2 G12C): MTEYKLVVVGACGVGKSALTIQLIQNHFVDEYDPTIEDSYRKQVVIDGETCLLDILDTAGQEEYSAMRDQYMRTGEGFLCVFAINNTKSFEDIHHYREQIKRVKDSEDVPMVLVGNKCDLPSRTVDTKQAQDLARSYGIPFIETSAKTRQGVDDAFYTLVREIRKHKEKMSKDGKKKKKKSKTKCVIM

SMILES | IC50 [nM]
C#Cc1c(F)ccc2cc(O)cc(-c3ncc4c(N5C[C@H]6CC[C@@H](C5)N6C(=O)/C(F)=C/c5nnc(C)s5)nc(OC[C@@]56CCCN5C[C@H](F)C6)nc4c3F)c12 [Compound 14, (Z)-1-((1R, 5S)-3-(7-(8-ethynyl-7-fluoro-3-hydroxynaphthalen-1-yl)-8-fluoro-2-(((2R, 7aS)-2-fluorotetrahydro-1H-pyrrolizin-7a(5H)-yl)methoxy)pyrido[4,3-d]pyrimidin-4-yl)-3,8-diazabicyclo[3.2.1]octan-8-yl)-2-fluoro-3-(5-methyl-1,3,4-thiadiazol-2-yl)prop-2-en-1-one] | 22
C#Cc1c(F)ccc2cc(O)cc(-c3ncc4c(N5C[C@H]6CC[C@@H](C5)N6C(=O)/C(F)=C/c5nccs5)nc(OC[C@@]56CCCN5C[C@H](F)C6)nc4c3F)c12 [Compound 1, (Z)-1-((1R, 5S)-3-(7-(8-ethynyl-7-fluoro-3-hydroxynaphthalen-1-yl)-8-fluoro-2-(((2R, 7aS)-2-fluorotetrahydro-1H-pyrrolizin-7a(5H)-yl)methoxy)pyrido[4,3-d]pyrimidin-4-yl)-3,8-diazabicyclo[3.2.1]octan-8-yl)-2-fluoro-3-(thiazol-2-yl)prop-2-en-1-one] | 27
C#Cc1cccc2cccc(-c3ncc4c(N5CCC6C5CCN6C(=O)/C(F)=C/c5ccccn5)nc(OC[C@@]56CCCN5C[C@H](F)C6)nc4c3F)c12 (single isomer, unassigned) [Compound 108] | 4300
C#Cc1cccc2cccc(-c3ncc4c(N(C)[C@@H]5CCN(C(=O)/C(F)=C/c6nccs6)C5)nc(OC[C@@]56CCCN5C[C@H](F)C6)nc4c3F)c12 [Compound 116, (Z)-1-((R)-3-((7-(8-ethynylnaphthalen-1-yl)-8-fluoro-2-(((2R, 7aS)-2-fluorotetrahydro-1H-pyrrolizin-7a(5H)-yl)methoxy)pyrido[4,3-d]pyrimidin-4-yl)(methyl)amino)pyrrolidin-1-yl)-2-fluoro-3-(thiazol-2-yl)prop-2-en-1-one] | 27
C#Cc1c(F)ccc2cc(O)cc(-c3ncc4c(N5C[C@H]6CC[C@@H](C5)N6C(=O)/C(F)=C/c5ccc(Br)cn5)nc(OC[C@@]56CCCN5C[C@H](F)C6)nc4c3F)c12 [Compound 9, (Z)-3-(5-bromopyridin-2-yl)-1-((1R, 5S)-3-(7-(8-ethynyl-7-fluoro-3-hydroxynaphthalen-1-yl)-8-fluoro-2-(((2R, 7aS)-2-fluorotetrahydro-1H-pyrrolizin-7a(5H)-yl)methoxy)pyrido[4,3-d]pyrimidin-4-yl)-3,8-diazabicyclo[3.2.1]octan-8-yl)-2-fluoroprop-2-en-1-one] | 350
C#Cc1c(F)c(F)cc2cccc(-c3ncc4c(N5CCN(C(=O)/C(F)=C/c6ncccn6)CC5)nc(OC[C@@]56CCCN5C[C@H](F)C6)nc4c3F)c12 [Compound 98, (Z)-1-(4-(7-(8-ethynyl-6,7-difluoronaphthalen-1-yl)-8-fluoro-2-(((2R, 7aS)-2-fluorotetrahydro-IH-pyrrolizin-7a(5H)-yl)methoxy)pyrido[4,3-d]pyrimidin-4-yl)piperazin-1-yl)-2-fluoro-3-(pyrimidin-2-yl)prop-2-en-1-one] | 91
C#Cc1ccc(F)c2cccc(-c3ncc4c(N5CCN(C(=O)/C(F)=C/c6ccccn6)CC5)nc(OC[C@@]56CCCN5C[C@H](F)C6)nc4c3F)c12 [Compound 96, (Z)-1-(4-(7-(8-ethynyl-5-fluoronaphthalen-1-yl)-8-fluoro-2-(((2R, 7aS)-2-fluorotetrahydro-1H-pyrrolizin-7a(5H)-yl)methoxy)pyrido[4,3-d]pyrimidin-4-yl)piperazin-1-yl)-2-fluoro-3-(pyridin-2-yl)prop-2-en-1-one] | 110
C#Cc1cccc2cccc(-c3ncc4c(N(C)C5CCN(C(=O)/C(F)=C/c6nccs6)C5C)nc(OC[C@@]56CCCN5C[C@H](F)C6)nc4c3F)c12 (single isomer, unassigned) [Example 73 cis isomer 1] | 110
